Results published in patent US12178210B2, “Insect attractant and killing system” (priority 2020, dated 2024).
Read-outs that look alike come from different tables or passages of the source.

How the values were obtained:
[1] = for Attractant Release Rate (5-day average per time point): Ambient Temperature
Text: All prototype lure devices (i.e., the attractant receptacle and permeable membrane with enclosed volatile insect attractant) were constructed using polypropylene/calcium carbonate film (UV8) for the permeable membrane and Scotchpak™ (3M) polyester laminate film for the impermeable barrier material. Each lure device measured approximately 11.5 cm×5.5 cm with a 1.6 mm ( 1/16 in) diameter spherical punch in the impermeable layer exposing the membrane and an ˜8 mm ( 5/16 in) diameter heat seal around the circumference of the punch (referred to as a ring seal). […] Prior to being deployed the lures were weighed on an analytical balance (Sartorius, Universal; resolution of 0.01 g). Prototype lures were attached to a cord that ran the length of ventilated laboratory fume hood, with 5-8 cm (2-3 in) separating each lure in an open, ventilated room at the indicated temperature (18-20° C. or 39-41° C.). Every 2-3 days the lures were removed from the cord and weighed on the same scale. Lure weight was recorded and the weight loss (g/day) was calculated. In addition to prototype lures, two controls were included in the study consisting of a current Suterra lure product (WHF lure) and a competitor product (Comp. Prod. 1).

[2] = field, Valencia
Experimental: Every two weeks samples of the attractant were weighed to determine the mass. From the mass, the mass that had been released, the mass remaining, and the amount of ammonia released was determined.

N.NC(=O)O [Ammonium Carbamate, ammonium carbamate]
Release Rate ([1]; 40° C., 16 hours, UV8 membrane, 1.6 mm orifice): 0.49 g/day | Release Rate ([1]; 40° C., 16 hours, second, unexplained block of rows): 0.02 g/day | Release Rate ([1]; 40° C., 24 hours, UV8 membrane, 1.6 mm orifice): 0.49 g/day | Release Rate ([1]; 40° C., 24 hours, second, unexplained block of rows): 0.01 g/day | Release Rate ([1]; 40° C., 51 hours, UV8 membrane, 1.6 mm orifice): 0.46 g/day | Release Rate ([1]; 40° C., 51 hours, second, unexplained block of rows): 0.01 g/day | Release Rate ([1]; 40° C., 88 hours, UV8 membrane, 1.6 mm orifice): 0.45 g/day | Release Rate ([1]; 40° C., 88 hours, second, unexplained block of rows): 0.04 g/day | Release Rate ([1]; 40° C., 96 hours, UV8 membrane, 1.6 mm orifice): 0.46 g/day | Release Rate ([1]; 40° C., 96 hours, second, unexplained block of rows): 0.06 g/day | Release Rate ([1]; 40° C., 112 hours, UV8 membrane, 1.6 mm orifice): 0.46 g/day | Release Rate ([1]; 40° C., 112 hours, second, unexplained block of rows): 0.08 g/day | Release Rate ([1]; 40° C., 120 hours, UV8 membrane, 1.6 mm orifice): 0.46 g/day | Release Rate ([1]; 40° C., 120 hours, second, unexplained block of rows): 0.09 g/day | Release Rate ([1]; 40° C., 144 hours, UV8 membrane, 1.6 mm orifice): 0.46 g/day | Release Rate ([1]; 40° C., 144 hours, second, unexplained block of rows): 0.11 g/day | Release Rate ([1]; 40° C., 168 hours, UV8 membrane, 1.6 mm orifice): 0.46 g/day | Release Rate ([1]; 40° C., 168 hours, second, unexplained block of rows): 0.13 g/day | Attractant Release Rate (5-day average per time point) ([1]; day 5, 15 g, UV8 membrane, 1.6 mm orifice): 89.2 mg/day | Attractant Release Rate (5-day average per time point) ([1]; day 10, 15 g, UV8 membrane, 1.6 mm orifice): 93.6 mg/day | Attractant Release Rate (5-day average per time point) ([1]; day 15, 15 g, UV8 membrane, 1.6 mm orifice): 97.0 mg/day | Attractant Release Rate (5-day average per time point) ([1]; day 20, 15 g, UV8 membrane, 1.6 mm orifice): 101.0 mg/day | Attractant Release Rate (5-day average per time point) ([1]; day 25, 15 g, UV8 membrane, 1.6 mm orifice): 100.0 mg/day | Attractant Release Rate (5-day average per time point) ([1]; day 30, 15 g, UV8 membrane, 1.6 mm orifice): 105.3 mg/day | Attractant Release Rate (5-day average per time point) ([1]; day 40, 15 g, UV8 membrane, 1.6 mm orifice): 99.6 mg/day | Attractant Release Rate (5-day average per time point) ([1]; day 49, 15 g, UV8 membrane, 1.6 mm orifice): 113.5 mg/day | Attractant Release Rate (5-day average per time point) ([1]; day 55, 15 g, UV8 membrane, 1.6 mm orifice): 114.3 mg/day | Release Rate ([1]; Ambient, 16 hours, UV8 membrane, 1.6 mm orifice): 0.09 g/day | Release Rate ([1]; Ambient, 16 hours, second, unexplained block of rows): 0.00 g/day | Release Rate ([1]; Ambient, 24 hours, UV8 membrane, 1.6 mm orifice): 0.10 g/day | Release Rate ([1]; Ambient, 24 hours, second, unexplained block of rows): 0.01 g/day | Release Rate ([1]; Ambient, 51 hours, UV8 membrane, 1.6 mm orifice): 0.10 g/day | Release Rate ([1]; Ambient, 51 hours, second, unexplained block of rows): 0.00 g/day | Release Rate ([1]; Ambient, 88 hours, UV8 membrane, 1.6 mm orifice): 0.10 g/day | Release Rate ([1]; Ambient, 88 hours, second, unexplained block of rows): 0.02 g/day | Release Rate ([1]; Ambient, 96 hours, UV8 membrane, 1.6 mm orifice): 0.10 g/day | Release Rate ([1]; Ambient, 96 hours, second, unexplained block of rows): 0.02 g/day | Release Rate ([1]; Ambient, 112 hours, UV8 membrane, 1.6 mm orifice): 0.10 g/day | Release Rate ([1]; Ambient, 112 hours, second, unexplained block of rows): 0.02 g/day | Release Rate ([1]; Ambient, 120 hours, UV8 membrane, 1.6 mm orifice): 0.10 g/day | Release Rate ([1]; Ambient, 120 hours, second, unexplained block of rows): 0.00 g/day | Release Rate ([1]; Ambient, 144 hours, UV8 membrane, 1.6 mm orifice): 0.10 g/day | Release Rate ([1]; Ambient, 144 hours, second, unexplained block of rows): 0.00 g/day | Release Rate ([1]; Ambient, 168 hours, UV8 membrane, 1.6 mm orifice): 0.10 g/day | Release Rate ([1]; Ambient, 168 hours, second, unexplained block of rows): 0.00 g/day | Attractant Release Rate (5-day average per time point) ([1]; day 5, CM): 393.2 mg/day | Attractant Release Rate (5-day average per time point) ([1]; day 10, CM): 387.2 mg/day | Attractant Release Rate (5-day average per time point) ([1]; day 15, CM): 362.0 mg/day | Attractant Release Rate (5-day average per time point) ([1]; day 20, CM): 356.0 mg/day | Attractant Release Rate (5-day average per time point) ([1]; day 25, CM): 331.6 mg/day | Attractant Release Rate (5-day average per time point) ([1]; day 30, CM): 311.7 mg/day | Attractant Release Rate (5-day average per time point) ([1]; day 35, CM): 306.5 mg/day | Attractant Release Rate (5-day average per time point) ([1]; day 40, CM): 266.0 mg/day | Attractant Release Rate (5-day average per time point) ([1]; day 45, CM): 191.6 mg/day | Attractant Release Rate (5-day average per time point) ([1]; day 49, CM): 94.0 mg/day | Attractant Release Rate (5-day average per time point) ([1]; day 55, CM): 10.3 mg/day | Avg. Mass Loss ([2]; week 0, ave. temp. 25.10 ° C): 0.00 g | Avg. Mass Remaining ([2]; week 0, ave. temp. 25.10 ° C): 16.90 g | Avg. Release Rate ([2]; week 0, ave. temp. 25.10 ° C): 0.000 g/day | Avg. Mass Loss ([2]; week 2, ave. temp. 26.30 ° C): 0.75 g | Avg. Mass Remaining ([2]; week 2, ave. temp. 26.30 ° C): 16.15 g | Avg. Release Rate ([2]; week 2, ave. temp. 26.30 ° C): 0.054 g/day | Avg. Mass Loss ([2]; week 4, ave. temp. 26.90 ° C): 1.75 g | Avg. Mass Remaining ([2]; week 4, ave. temp. 26.90 ° C): 15.15 g | Avg. Release Rate ([2]; week 4, ave. temp. 26.90 ° C): 0.071 g/day | Avg. Mass Loss ([2]; week 6, ave. temp. 27.10 ° C): 2.65 g | Avg. Mass Remaining ([2]; week 6, ave. temp. 27.10 ° C): 14.25 g | Avg. Release Rate ([2]; week 6, ave. temp. 27.10 ° C): 0.064 g/day | Avg. Mass Loss ([2]; week 8, ave. temp. 24.40 ° C): 3.48 g | Avg. Mass Remaining ([2]; week 8, ave. temp. 24.40 ° C): 13.42 g | Avg. Release Rate ([2]; week 8, ave. temp. 24.40 ° C): 0.059 g/day | Avg. Mass Loss ([2]; week 10, ave. temp. 22.60 ° C): 4.17 g | Avg. Mass Remaining ([2]; week 10, ave. temp. 22.60 ° C): 12.72 g | Avg. Release Rate ([2]; week 10, ave. temp. 22.60 ° C): 0.050 g/day | Avg. Mass Loss ([2]; week 12, ave. temp. 21.50 ° C): 4.82 g | Avg. Mass Remaining ([2]; week 12, ave. temp. 21.50 ° C): 12.08 g | Avg. Release Rate ([2]; week 12, ave. temp. 21.50 ° C): 0.046 g/day | Avg. Mass Loss ([2]; week 14, ave. temp. 19.90 ° C): 5.38 g | Avg. Mass Remaining ([2]; week 14, ave. temp. 19.90 ° C): 11.52 g | Avg. Release Rate ([2]; week 14, ave. temp. 19.90 ° C): 0.040 g/day | Avg. Mass Loss ([2]; week 16, ave. temp. 17.70 ° C): 5.72 g | Avg. Mass Remaining ([2]; week 16, ave. temp. 17.70 ° C): 11.18 g | Avg. Release Rate ([2]; week 16, ave. temp. 17.70 ° C): 0.024 g/day | Avg. Mass Loss ([2]; week 18, ave. temp. 15.30 ° C): 6.02 g | Avg. Mass Remaining ([2]; week 18, ave. temp. 15.30 ° C): 10.88 g | Avg. Release Rate ([2]; week 18, ave. temp. 15.30 ° C): 0.021 g/day | Avg. Mass Loss ([2]; week 20, ave. temp. 14.40 ° C): 6.26 g | Avg. Mass Remaining ([2]; week 20, ave. temp. 14.40 ° C): 10.64 g | Avg. Release Rate ([2]; week 20, ave. temp. 14.40 ° C): 0.017 g/day | Avg. Mass Loss ([2]; week 24, ave. temp. 11.70 ° C): 6.36 g | Avg. Mass Remaining ([2]; week 24, ave. temp. 11.70 ° C): 10.54 g | Avg. Release Rate ([2]; week 24, ave. temp. 11.70 ° C): 0.004 g/day | Avg. Mass Loss ([2]; week 28, ave. temp. […] C): 6.71 g | Avg. Mass Remaining ([2]; week 28, ave. temp. […] C): 10.19 g | Avg. Release Rate ([2]; week 28, ave. temp. […] C): 0.013 g/day | Avg. Mass Loss ([2]; week 31, ave. temp. […] C): 7.22 g | Avg. Mass Remaining ([2]; week 31, ave. temp. […] C): 9.67 g | Avg. Release Rate ([2]; week 31, ave. temp. […] C): 0.024 g/day | Avg. Mass Loss ([2]; week 35, ave. temp. 12.60 ° C): 7.63 g | Avg. Mass Remaining ([2]; week 35, ave. temp. 12.60 ° C): 9.26 g | Avg. Release Rate ([2]; week 35, ave. temp. 12.60 ° C): 0.015 g/day | Avg. Mass Loss ([2]; week 38, ave. temp. 13.50 ° C): 8.07 g | Avg. Mass Remaining ([2]; week 38, ave. temp. 13.50 ° C): 8.83 g | Avg. Release Rate ([2]; week 38, ave. temp. 13.50 ° C): 0.021 g/day | Avg. Mass Loss ([2]; week 39, ave. temp. 13.30 ° C): 8.24 g | Avg. Mass Remaining ([2]; week 39, ave. temp. 13.30 ° C): 8.66 g | Avg. Release Rate ([2]; week 39, ave. temp. 13.30 ° C): 0.024 g/day | Avg. Mass Loss ([2]; week 41, ave. temp. 15.80 ° C): 8.55 g | Avg. Mass Remaining ([2]; week 41, ave. temp. 15.80 ° C): 8.35 g | Avg. Release Rate ([2]; week 41, ave. temp. 15.80 ° C): 0.022 g/day | Avg. Mass Loss ([2]; week 43, ave. temp. 16.50 ° C): 8.79 g | Avg. Mass Remaining ([2]; week 43, ave. temp. 16.50 ° C): 8.11 g | Avg. Release Rate ([2]; week 43, ave. temp. 16.50 ° C): 0.017 g/day | Avg. Mass Loss ([2]; week 46, ave. temp. 18.10 ° C): 9.45 g | Avg. Mass Remaining ([2]; week 46, ave. temp. 18.10 ° C): 7.44 g | Avg. Release Rate ([2]; week 46, ave. temp. 18.10 ° C): 0.032 g/day | Avg. Mass Loss ([2]; week 47, ave. temp. 20.40 ° C): 9.75 g | Avg. Mass Remaining ([2]; week 47, ave. temp. 20.40 ° C): 7.14 g | Avg. Release Rate ([2]; week 47, ave. temp. 20.40 ° C): 0.043 g/day
